# Measured values published in ChEMBL document CHEMBL1201862, “PubChem BioAssay data set” (2004).
# Activity calls are given as the source filed them.
# Key:
# [1] = viability loss in HepG2 hepatoma cells – cell-based, ATP luminescence, cherry-pick, activator set 2, cytotoxicity control, dose response (AID 1053143); type: functional
# [2] = blockers of FN fibrillogenesis by fibroblasts – AH1F cells, Alexa488-FN fluorescence, cherry-picks, dose response (AID 1035475); type: functional, cell-based
# [3] = viability loss in HEK293 kidney cells – cell-based, cherry-picks, set 5, cytotoxicity control, dose response (AID 1053117); type: functional
# [4] = viability loss in A549 lung cancer cells – cell-based, cherry-picks, […], cytotoxicity control, dose response (AID 1053119); type: functional
# [5] = molecular target: Photoreceptor-specific nuclear receptor (Homo sapiens, UniProt Q9Y5X4); type: functional, cell-based;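 note: CHO-S cells with Gal4-NCOR and VP16-NR2E3 two-hybrid luciferase reporter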
# Photoreceptor-specific nuclear receptor, sequence (Q9Y5X4 whole entry, the tested form may be a part): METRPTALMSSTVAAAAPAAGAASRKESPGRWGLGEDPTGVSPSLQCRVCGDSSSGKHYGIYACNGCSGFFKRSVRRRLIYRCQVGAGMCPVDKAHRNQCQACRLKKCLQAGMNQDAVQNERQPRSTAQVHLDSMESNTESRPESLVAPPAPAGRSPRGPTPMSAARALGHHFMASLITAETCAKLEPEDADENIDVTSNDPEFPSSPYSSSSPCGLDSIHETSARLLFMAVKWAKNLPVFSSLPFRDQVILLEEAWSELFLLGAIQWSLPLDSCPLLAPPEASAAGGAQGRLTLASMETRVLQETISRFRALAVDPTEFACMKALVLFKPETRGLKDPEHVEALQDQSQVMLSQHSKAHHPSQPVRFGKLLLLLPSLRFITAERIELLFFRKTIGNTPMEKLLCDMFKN
# [6] = molecular target: Muscarinic acetylcholine receptor M5 (Homo sapiens, UniProt P08912); assay: inhibition of ACh-evoked human M5 signalling – cell-based, CHO-K1 hM5, Fluo-4 calcium flux, ACh EC80, dose response (AID 743110); type: functional
# Muscarinic acetylcholine receptor M5, sequence (P08912 whole entry): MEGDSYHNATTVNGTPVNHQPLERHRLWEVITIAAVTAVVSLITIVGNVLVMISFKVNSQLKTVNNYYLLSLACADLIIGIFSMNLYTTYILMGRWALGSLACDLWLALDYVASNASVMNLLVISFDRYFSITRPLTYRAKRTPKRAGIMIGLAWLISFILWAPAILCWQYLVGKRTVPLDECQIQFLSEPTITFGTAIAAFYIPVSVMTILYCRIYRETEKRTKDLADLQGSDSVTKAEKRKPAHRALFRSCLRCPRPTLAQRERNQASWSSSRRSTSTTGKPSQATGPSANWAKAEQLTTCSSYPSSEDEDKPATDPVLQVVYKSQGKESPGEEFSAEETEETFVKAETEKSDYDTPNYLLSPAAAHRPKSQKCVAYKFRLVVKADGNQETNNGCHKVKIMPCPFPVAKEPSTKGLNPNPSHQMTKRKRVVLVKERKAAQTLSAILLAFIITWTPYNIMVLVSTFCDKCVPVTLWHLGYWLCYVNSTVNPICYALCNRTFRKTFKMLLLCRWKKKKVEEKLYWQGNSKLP
# [7] = viability loss in A549 lung cancer cells – cell-based, CellTiter-Glo luminescence, dry powder, set 3, cytotoxicity control, dose response (AID 743146); type: functional
# [8] = HEK293T viability loss – cell-based, ATP luminescence, dry powder, Set6, cytotoxicity control, dose response (AID 743142); type: functional; settings: HEK293
# [9] = molecular target: Potassium channel subfamily K member 3 (Rattus norvegicus, UniProt O54912); assay: SAR analysis for the identification of selective inhibitors of the two-pore domain potassium channel TASK1(KCNK3):Automated Electrophysiology.; type: functional
# Potassium channel subfamily K member 3 (Rattus norvegicus, UniProt O54912), sequence (O54912 whole entry, the tested form may be a part): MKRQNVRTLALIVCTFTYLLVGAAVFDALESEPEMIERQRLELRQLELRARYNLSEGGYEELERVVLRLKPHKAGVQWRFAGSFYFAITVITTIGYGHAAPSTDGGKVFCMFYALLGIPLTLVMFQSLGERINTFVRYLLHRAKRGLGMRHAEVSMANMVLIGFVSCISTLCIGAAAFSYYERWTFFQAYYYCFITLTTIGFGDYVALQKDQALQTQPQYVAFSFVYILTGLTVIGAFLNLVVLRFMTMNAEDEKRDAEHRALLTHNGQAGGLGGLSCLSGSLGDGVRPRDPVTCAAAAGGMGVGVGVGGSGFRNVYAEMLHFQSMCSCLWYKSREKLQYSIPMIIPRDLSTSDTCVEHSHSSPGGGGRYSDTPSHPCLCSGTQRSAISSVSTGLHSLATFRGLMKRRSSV
# [10] = molecular target: Potassium channel subfamily K member 3 (Homo sapiens, UniProt O14649); assay: inhibition of human KCNK3 channel flux – CHO cells, FluxOR thallium flux, SAR follow-up (AID 652212); type: functional
# Potassium channel subfamily K member 3 (Homo sapiens, UniProt O14649), sequence (O14649 whole entry): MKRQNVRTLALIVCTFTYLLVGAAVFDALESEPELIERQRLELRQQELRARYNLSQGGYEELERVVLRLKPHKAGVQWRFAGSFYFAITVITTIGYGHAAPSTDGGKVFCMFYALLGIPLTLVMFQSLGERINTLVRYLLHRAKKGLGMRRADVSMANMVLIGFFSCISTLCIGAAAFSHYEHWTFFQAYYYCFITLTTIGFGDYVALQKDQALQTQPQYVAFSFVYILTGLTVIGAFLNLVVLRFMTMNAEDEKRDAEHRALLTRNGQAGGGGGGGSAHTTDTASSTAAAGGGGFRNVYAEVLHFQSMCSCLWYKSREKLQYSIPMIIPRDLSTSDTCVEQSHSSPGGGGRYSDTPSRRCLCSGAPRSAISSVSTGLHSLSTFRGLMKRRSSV
# [11] = molecular target: T1, Potassium channel subfamily K member 9 (Homo sapiens, UniProt Q9NPC2); assay: TASK3 channel blockers, electrophysiology – cell-based, automated electrophysiology, selectivity assay for TASK1 (KCNK3) inhibitor project, SAR follow-up (AID 652210); type: functional
# T1 sequence (Q9NPC2 whole entry): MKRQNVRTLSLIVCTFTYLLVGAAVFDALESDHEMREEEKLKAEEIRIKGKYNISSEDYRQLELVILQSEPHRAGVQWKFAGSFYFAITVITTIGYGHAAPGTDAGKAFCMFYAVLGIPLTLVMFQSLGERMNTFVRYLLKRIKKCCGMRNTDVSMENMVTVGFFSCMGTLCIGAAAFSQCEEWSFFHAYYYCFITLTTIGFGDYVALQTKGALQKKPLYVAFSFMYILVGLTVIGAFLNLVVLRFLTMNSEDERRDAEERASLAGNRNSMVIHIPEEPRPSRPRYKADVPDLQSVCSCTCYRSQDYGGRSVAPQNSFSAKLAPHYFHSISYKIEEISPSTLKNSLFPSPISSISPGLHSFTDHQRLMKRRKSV
# [12] = molecular target: T1, Potassium channel subfamily K member 9; assay: KCNK9 flux blockade, concentration-response – cell-based, FluxOR thallium flux, selectivity assay for TASK1 inhibitor project, SAR follow-up (AID 652211); type: functional;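 note: potency is for inhibitors of the channel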
# [13] = A Cell-Based Confirmatory Screen for Compounds that Inhibit VEEV, TC-83 (8).; type: functional
# [14] = PAX5 cellular inhibition readout – cell-based, plate reader, dry powder samples, selectivity assay for PAX8 inhibitor project, dose response (AID 743047); type: functional;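 note: HEK293 cells carrying a Pax5 driven CD19 promoter luciferase reporter; potency of inhibitors that lower reporter luminescence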
# [15] = PAX8-dependent cell viability loss – plate reader, dry powder, dose response (AID 743049); type: functional, cell-based
# [16] = OVCAR4 cell viability loss – plate reader, dry powder, SA11, cytotoxicity control for PAX8 inhibitor project, dose response (AID 743150); type: functional, cell-based; settings: OVCAR-4
# Paired box protein Pax-8 = Paired box protein Pax-8 (Homo sapiens, UniProt Q06710); assay: PAX8 transcriptional activity inhibition in RMG-I – RMG-I cells, luciferase, cherry-pick, dose response (AID 687027); type: functional, cell-based;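 note: luciferase reporter driven by Pax8 target thyroperoxidase promoter measured by SteadyGlo luminescence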
# Paired box protein Pax-8, sequence (Q06710 whole entry): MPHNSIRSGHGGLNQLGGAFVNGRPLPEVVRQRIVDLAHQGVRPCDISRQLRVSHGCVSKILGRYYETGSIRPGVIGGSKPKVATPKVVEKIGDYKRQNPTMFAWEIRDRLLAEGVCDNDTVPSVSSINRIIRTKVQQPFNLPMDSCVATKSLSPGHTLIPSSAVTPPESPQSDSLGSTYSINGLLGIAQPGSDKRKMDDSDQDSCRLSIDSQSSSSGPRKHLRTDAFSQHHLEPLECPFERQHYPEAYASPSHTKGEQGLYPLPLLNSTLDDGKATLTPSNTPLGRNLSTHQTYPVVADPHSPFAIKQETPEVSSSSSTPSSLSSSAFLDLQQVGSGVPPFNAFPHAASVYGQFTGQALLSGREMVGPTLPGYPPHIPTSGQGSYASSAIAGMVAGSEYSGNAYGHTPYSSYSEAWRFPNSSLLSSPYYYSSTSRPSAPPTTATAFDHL
# [17] = OV-90 cell viability loss – plate reader, dry powder, SA8, PAX8 inhibitor project, dose response (AID 743149); type: functional, cell-based
# [18] = inhibitors acting on PAX2 in cells – cell-based, plate reader, dry powder samples, selectivity assay for PAX8 inhibitor project, dose response (AID 743048); type: functional;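 note: HEK293 cells carrying a WT1 promoter luciferase reporter driven by expressed Pax2; potency is for inhibition of Pax2 driven reporter signal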
# [19] = Counterscreen for […] of the human trace amine associated receptor 1 (TAAR1): Fluorescence-based cell-based high throughput dose response assay to identify nonselective Ga16 agonists.; type: functional
# [20] = Counterscreen for antagonists of the human trace amine associated receptor 1 (hTAAR1): Fluorescence-based cell-based high throughput dose response assay to identify nonselective Ga16 antagonists.; type: functional
# [21] = molecular target: T2, Trace amine-associated receptor 1 (Homo sapiens, UniProt Q96RJ0); assay: Fluorescence-based cell-based high throughput dose response assay to identify antagonists of the human trace amine associated receptor 1 (TAAR1).; type: functional
# T2 sequence (Q96RJ0 whole entry): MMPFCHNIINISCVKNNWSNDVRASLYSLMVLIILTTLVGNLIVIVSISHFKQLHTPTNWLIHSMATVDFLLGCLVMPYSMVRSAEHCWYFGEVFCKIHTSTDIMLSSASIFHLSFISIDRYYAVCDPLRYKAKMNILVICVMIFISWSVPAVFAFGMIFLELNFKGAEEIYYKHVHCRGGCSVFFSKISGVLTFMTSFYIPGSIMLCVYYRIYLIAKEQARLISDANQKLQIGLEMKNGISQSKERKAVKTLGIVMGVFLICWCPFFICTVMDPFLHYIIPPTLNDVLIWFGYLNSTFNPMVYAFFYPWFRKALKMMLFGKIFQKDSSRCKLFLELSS
# [22] = molecular target: T2, Trace amine-associated receptor 1; assay: Counterscreen for antagonists of the human trace amine associated receptor 1 (hTAAR1): Fluorescence-based cell-based high throughput dose response assay to identify TAAR1 Agonists.; type: functional
# [23] = toxicity toward immortalized ovarian surface epithelium – cell-based, plate reader, dry powder samples, cytotoxicity control for PAX8 inhibitor project, dose response (AID 743045); type: functional
# [24] = OVCAR8 cell viability loss – plate reader, dry powder samples, PAX8 project, dose response (AID 743197); type: functional, cell-based; settings: OVCAR-8
# [25] = CMV-driven luciferase expression suppression in HEK293 – cell-based, luminescence, dry powder, counter-screen for Pax8 inhibitor project, dose response (AID 743020); type: functional
# [26] = OVCAR-3 cell viability loss – plate reader, dry powder samples, PAX8 inhibitor project, dose response (AID 743044); type: functional, cell-based
smiles,measurement,setting,value
O=c1c2ccccc2oc2cc(-c3ccc(CN4CCOCC4)cc3)ccc12,AC50,[1],26 µM (active)
CN1CCN(C(=O)c2cccc(-c3cnc4cnc(-c5ccccc5Oc5ccccc5)cn34)c2)CC1,AC50,[2],5.86 µM (active)
same,AC50,[3],47.8 µM (active)
same,AC50,[4],> 52 µM (inactive)
same,IC50,[5],1.72 µM (active)
COC(=O)c1cccc(OCc2cc(C(=O)N(C)C(C)c3ccccn3)no2)c1 (stereo not drawn),IC50,[6],11.1 µM (active)
Cc1ccc(C(=O)NCCC(=O)N[C@@H]2CCCc3ccccc32)cc1,AC50,[7],> 52 µM (inactive)
same,AC50,[8],6.22 µM (active)
CCOc1ccccc1NC(=O)c1cccc(NC(=O)c2ccccc2)c1,IC50,[9],0.06 µM (active)
same,IC50,[10],0.121 µM (active)
same,IC50,[11],2.14 µM (active)
same,IC50,[12],1.43 µM (active)
CCN1CCN(C(c2nc3ncc([N+](=O)[O-])cc3c(=O)n2-c2ccccc2)C(c2nc3ncc([N+](=O)[O-])cc3c(=O)n2-c2ccccc2)N2CCN(CC)CC2)CC1 (stereo not drawn),IC50,[13],6.57 µM (active)
COc1cccc(-c2ccc([C@H]3[C@@H](CO)N(C(=O)Cc4ccccc4)[C@H]3C#N)cc2)c1,AC50,[14],6.07 µM (active)
same,AC50,[15],25.5 µM (active)
same,AC50,[16],10.8 µM (active)
same,AC50,Paired box protein Pax-8,19.5 µM (active)
same,AC50,[17],> 70 µM (inactive)
same,AC50,[18],34.4 µM (active)
CCCC(=O)Nc1ccc(-c2csc(N/N=C\c3ccncc3)n2)cc1,EC50,[19],> 29.9 µM (inactive)
same,IC50,[20],> 29.9 µM (inactive)
same,IC50,[21],9.3 µM (active)
same,EC50,[22],> 29.9 µM (inactive)
O=C(Nc1ccc(F)cc1)N1CC(=O)N2[C@@H](CO)[C@H](c3ccc(-c4ccc(F)cc4)cc3)[C@@H]2C1,AC50,[23],36.7 µM (active)
same,AC50,[24],25.6 µM (active)
same,AC50,[25],34.5 µM (active)
same,AC50,Paired box protein Pax-8,6.32 µM (active)
same,AC50,[26],18.1 µM (active)
